Test results from patent US7989650B2, “Therapeutic delivery of carbon monoxide to extracorporeal and isolated organs” (hemoCORM Limited, priority 2002, dated 2011).

Legend:
[1] = tested on: isolated hearts from male Lewis rats; assay: Ischaemia-reperfusion model in isolated Langendorff-perfused hearts; set-up: species or system rat
Protocol: Isolated hearts from male Lewis rats (300-350 g) were perfused according to the Langendorff technique as previously described by our group. Briefly, hearts were rapidly excised and perfused at constant flow (11 ml/min) with Krebs-Henseleit buffer (in mM: 119 NaCl, 4.7 KCl, 2.5 CaCl2, 1.66 MgSO4, 24.9 NaHCO3, 1.18 KH2PO4, 5.55 glucose, 2.00 sodium pyruvate, 0.5 EGTA) bubbled with 95% O2 and 5% CO2 at 37° C. (pH 7.4). Coronary perfusion pressure (CPP) was continuously measured by a pressure transducer (Grass Instruments, Astromed, RI, USA) connected to the aortic cannula. A latex balloon filled with saline was inserted into the left ventricle through the atrium and connected by a catheter to a second pressure transducer. The balloon was inflated to provide an initial end-diastolic pressure (EDP) of 10 mmHg. Both transducers were connected to a computer and data were acquired with BioPac™ instrumentation and analyzed with the accompanying AcqKnowledge™ software (BIOPAC System Inc.). Left ventricular developed pressure (LVDP), heart rate (HR), maximal contraction (+dP/dt) and relaxation (−dP/dt) rates, CPP and EDP were continuously recorded throughout the period of perfusion.
Isolated hearts were allowed to equilibrate at constant flow for 30 min and then made globally ischaemic by interrupting the buffer perfusion. Ischaemic hearts were kept at 37° C. in the water-jacketed chamber for 30 min and then reperfused for 60 min. All the hemodynamic parameters were continuously monitored throughout the experimental protocol as reported above. Krebs buffer was collected for 10 min from the pulmonary artery prior to the ischaemic event and in the last 10 min of reperfusion for creatine kinase (CK) analysis. At the end of reperfusion, hearts were stained to assess tissue viability using tetrazolium red. In additional experiments, hearts made ischaemic were infused for the first 10 min of reperfusion with CORM-3 or dCORM-3 (10 μM final concentration) via a syringe pump connected to the side arm of the aortic cannula. To assess a possible role of mitochondrial ATP-dependent potassium channels (KATP) in cardioprotection mediated by CORM-3, control hearts or hearts receiving CORM-3 were pre-treated for 10 min prior to ischaemia with […] (5-HD, 50 μM final concentration), a specific blocker of mitochondrial KATP.
Hearts from each experimental group (n=5) were stained for tissue viability at the end of the reperfusion period. Hearts were perfused through a side arm of the aortic cannula for 20 min with tetrazolium red (3% w/v) in Krebs Henseleit buffer at 37° C. The tetrazolium salt stains the viable myocardium brick red, whereas the infarcted tissue remains unstained and appears white. After staining, hearts were removed and stored in 2% formalin in the dark prior to analysis. Hearts were carefully cut into 2-mm thick sections, scanned into a computer using an AGFA Arcus® II scanner and the total ischaemic size was determined by volumetric analysis software (Scion Image®, Scion Corporation, MA, USA). Cardiac muscle damage was assessed by measuring the release of creatine kinase (CK) into the perfusate using a commercially available spectrophotometric assay kit (DG147-A) from Sigma Diagnostic (Poole, Dorset).

[2] = tested on: deoxymyoglobin (deoxy-Mb); assay: Detection of CO release: conversion of deoxymyoglobin to carbonmonoxy myoglobin (MbCO), spectrophotometric; assay type: physicochemical
Protocol: The release of CO from CORM-3 or dCOMR-3 was assessed spectrophotometrically by measuring the conversion of deoxymyoglobin (deoxy-Mb) to carbonmonoxy myoglobin (MbCO) as previously described. The amount of MbCO formed was quantified by measuring the absorbance at 540 nm (extinction coefficient=[…]). Myoglobin solutions (66 μmol/L final concentration) were prepared fresh by dissolving the protein in 0.04 M phosphate buffer (pH 6.8). Sodium dithionite (0.1%) was added to convert myoglobin to deoxy-Mb prior to each reading.
When CORM-3 was prepared in distilled water and then added to the phosphate buffer solution containing Mb, a spectrum characteristic of MbCO was rapidly detected (FIG. 1B).

[3] = tested on: pre-contracted aortic rings; conditions: cited from earlier work
[4] = tested on: deoxymyoglobin (deoxy-Mb); conditions: cited from earlier work
[5] = dissolved in DMSO; cited from earlier work
[6] = 10 μM infused for first 10 min of reperfusion, 30 min ischaemia, 60 min reperfusion
[7] = at the end of reperfusion, 10 μM infused for first 10 min of reperfusion
[8] = before ischaemia, hearts later reperfused with CORM-3

In the case of `NCC(=O)O.[CH+]=O.[CH+]=O.[CH+]=O.[Cl][Ru]` [CORM-3, tricarbonylchloro-(glycinato)ruthenium(II)], the “maximal rate of contraction (+dP/dt), after ischaemia-reperfusion” value [1, 6] is reported as 3726±542 mmHg/s, the “maximal rate of relaxation (−dP/dt), after ischaemia-reperfusion” value [1, 6] is reported as 2207±258 mmHg/s and the “increase in left ventricular-developed pressure (LVDP) compared to baseline” value ([1]; after 60 min reperfusion, 10 μM infused for first 10 min of reperfusion, 30 min global ischaemia) is reported as 44%. The “increase in coronary perfusion pressure (CPP)” value [1, 7] was 13±2.2 mmHg, the “increase in end diastolic pressure (EDP)” value [1, 7] was 3±1.8 mmHg and the “maximal rate of contraction (+dP/dt), baseline” value [1, 8] was 2099±99 mmHg/s. For the same compound, the “maximal rate of relaxation (−dP/dt), baseline” value [1, 8] was 1432±149 mmHg/s, the “creatine kinase (CK) activity in buffer, before ischaemia” value ([1]; buffer collected 10 min prior to ischaemia, hearts later reperfused with CORM-3) was 6.5±2.3 U/L and the “infarct size (tetrazolium red staining)” value ([1]; end of reperfusion, 10 μM infused for first 10 min of reperfusion) was 2.3±0.6%. For the same compound, the “protective effects on myocardial contractility (LVDP, +dP/dt, −dP/dt) and on EDP and CPP increases, with 5-HD pre-treatment” value ([1]; hearts pre-treated 10 min prior to ischaemia with 5-HD 50 μM, CORM-3 10 μM at reperfusion) was “totally abolished”, the “creatine kinase (CK) activity in buffer, after reperfusion” value ([1]; last 10 min of reperfusion, 10 μM infused for first 10 min of reperfusion) was 19.9±5.3 U/L and the “CO liberated per mole of compound” value ([2]; CORM-3 prepared in distilled water, added to phosphate buffer containing Mb) was 1 mol. For the same compound, the “formation of MbCO” value ([2]; addition of 40 μM CORM-3 prepared in distilled water, myoglobin 66 μmol/L, 0.04 M phosphate buffer pH 6.8) was 36.4 ± 0.9 µM, the “ability to liberate CO (conversion of Mb to MbCO) after standing in water” value ([2]; dissolved in water, left 24 h at room temperature) was “retained its full ability to liberate CO” and the “stability / ability to release CO in Krebs-Henseleit buffer” value ([2]; prepared in Krebs-Henseleit buffer, over time) was “gradually decomposed over time and lost its ability to release CO”.

For [Fe(SPh)2(2,2′-bipyridine)(CO)2], the “dilatation of pre-contracted aortic rings” value [3] is listed as “capable of promoting dilatation of pre-contracted aortic rings” and the “release of CO to myoglobin in solution” value [4] is listed as “not to release CO to myoglobin in solution”.

In the case of `[C-]#[O+].[C-]#[O+].[C-]#[O+].[C-]#[O+].[C-]#[O+].[C-]#[O+].[Cl][Ru][Cl].[Cl][Ru][Cl]` [[Ru(CO)3Cl2]2, Tricarbonyldichloro ruthenium(II) dimer], the “CO liberation on dissolution” value [5] is listed as “CO is liberated into solution”.
